Results reported in publication PMC8704611, “Synthesis, Molecular Docking Analysis, and Biological Evaluations of Saccharide-Modified Sulfonamides as Carbonic Anhydrase IX Inhibitors” (International Journal of Molecular Sciences, 2021).

Experiments:
hCA II = hCA II (Homo sapiens, UniProt P00918); experiment: CA inhibition assay (hydrolysis of 4-nitrophenylacetate); format: biochemical; settings: 4-NPA hydrolysis; three independent assays, relative errors 5–10%
Source text: (§1) Carbonic anhydrase has the ability to catalyse the hydrolysis of 4-NPA. […] More detailed operations and specific parameters are as reported earlier.

hCA IX = hCA IX (Homo sapiens, UniProt Q16790); experiment: as above; format: biochemical; settings: 4-NPA hydrolysis; three independent assays, relative errors 5–10%
Source text: as §1

IC50 (hCA II) [nM]	IC50 (hCA IX) [nM]	melting point [°C]	Structure (SMILES)
19.3	54.4	256 to 258	Nc1ccc(-c2cn(-c3ccc(S(N)(=O)=O)cc3)nn2)cc1 [Compound 14a, 4-(4-(4-Aminophenyl)-1H-1,2,3-triazol-1-yl)benzenesulfonamide]
12.3	50.4	270 to 273	Nc1cccc(-c2cn(-c3ccc(S(N)(=O)=O)cc3)nn2)c1 [Compound 14b, 4-(4-(3-Aminophenyl)-1H-1,2,3-triazol-1-yl)benzenesulfonamide]
15.7	40.4	245 to 247	Nc1ccc(-c2cn(-c3ccc(S(N)(=O)=O)cc3)nn2)cc1F [Compound 14c, 4-(4-(4-Amino-3-fluorophenyl)-1H-1,2,3-triazol-1-yl)benzenesulfonamide]
39.9	71	201 to 203	Nc1ccc(-c2cn(-c3ccc(S(N)(=O)=O)cc3)nn2)cc1Cl [Compound 14d, 4-(4-(4-Amino-3-chlorophenyl)-1H-1,2,3-triazol-1-yl)benzenesulfonamide]
37.9	111	264 to 266	Cc1cc(-c2cn(-c3ccc(S(N)(=O)=O)cc3)nn2)ccc1N [Compound 14e, 4-(4-(4-Amino-3-methylphenyl)-1H-1,2,3-triazol-1-yl)benzenesulfonamide]
100	120	230 to 233	COc1cc(-c2cn(-c3ccc(S(N)(=O)=O)cc3)nn2)ccc1N [Compound 14f, 4-(4-(4-Amino-3-methoxyphenyl)-1H-1,2,3-triazol-1-yl)benzenesulfonamide]
87	107	280 to 283	Nc1c(F)cc(-c2cn(-c3ccc(S(N)(=O)=O)cc3)nn2)cc1F [Compound 14g, 4-(4-(4-Amino-3,5-difluorophenyl)-1H-1,2,3-triazol-1-yl)benzenesulfonamide]
102	58.2	222 to 225	Nc1ccc(-c2cn(-c3ccc(S(N)(=O)=O)cc3)nn2)cc1[N+](=O)[O-] [Compound 14h, 4-(4-(4-Amino-3-nitrophenyl)-1H-1,2,3-triazol-1-yl)benzenesulfonamide]
70.2	150		NS(=O)(=O)c1ccc(-n2cc(-c3ccc(NC(=O)CCC(=O)N[C@@H]4O[C@H](CO)[C@@H](O)[C@H](O)[C@H]4O)c(F)c3)nn2)cc1 [Compound 16c, N^1-(2-fluoro-4-(1-(4-sulfamoylphenyl)-1H-1,2,3-triazol-4-yl)phenyl)-N^4-((2R,3R,4S,5S,6R)-3,4,5-trihydroxy-6-(hydroxymethyl)tetrahydro-2H-pyran-2-yl)succinamide]
90.8	100		NS(=O)(=O)c1ccc(-n2cc(-c3ccc(NC(=O)CCC(=O)N[C@@H]4O[C@H](CO)[C@@H](O)[C@H](O)[C@H]4O)c(Cl)c3)nn2)cc1 [Compound 16d, N^1-(2-chloro-4-(1-(4-sulfamoylphenyl)-1H-1,2,3-triazol-4-yl)phenyl)-N^4-((2R,3R,4S,5S,6R)-3,4,5-trihydroxy-6-(hydroxymethyl)tetrahydro-2H-pyran-2-yl)succinamide]
112	329		COc1cc(-c2cn(-c3ccc(S(N)(=O)=O)cc3)nn2)ccc1NC(=O)CCC(=O)N[C@@H]1O[C@H](CO)[C@@H](O)[C@H](O)[C@H]1O [Compound 16f, N^1-(2-methoxy-4-(1-(4-sulfamoylphenyl)-1H-1,2,3-triazol-4-yl)phenyl)-N^4-((2R,3R,4S,5S,6R)-3,4,5-trihydroxy-6-(hydroxymethyl)tetrahydro-2H-pyran-2-yl)succinamide]
149	544		NS(=O)(=O)c1ccc(-n2cc(-c3cc(F)c(NC(=O)CCC(=O)N[C@@H]4O[C@H](CO)[C@@H](O)[C@H](O)[C@H]4O)c(F)c3)nn2)cc1 [Compound 16g, N^1-(2,6-difluoro-4-(1-(4-sulfamoylphenyl)-1H-1,2,3-triazol-4-yl)phenyl)-N^4-((2R,3R,4S,5S,6R)-3,4,5-trihydroxy-6-(hydroxymethyl)tetrahydro-2H-pyran-2-yl)succinamide]
26	270		NS(=O)(=O)c1ccc(-n2cc(-c3ccc(NC(=O)CCCC(=O)N[C@@H]4O[C@H](CO)[C@@H](O)[C@H](O)[C@H]4O)cc3)nn2)cc1 [Compound 16h, N^1-(4-(1-(4-sulfamoylphenyl)-1H-1,2,3-triazol-4-yl)phenyl)-N^5-((2R,3R,4S,5S,6R)-3,4,5-trihydroxy-6-(hydroxymethyl)tetrahydro-2H-pyran-2-yl)glutaramide]
10.1	300		NS(=O)(=O)c1ccc(-n2cc(-c3cccc(NC(=O)CCCC(=O)N[C@@H]4O[C@H](CO)[C@@H](O)[C@H](O)[C@H]4O)c3)nn2)cc1 [Compound 16i, N^1-(3-(1-(4-sulfamoylphenyl)-1H-1,2,3-triazol-4-yl)phenyl)-N^5-((2R,3R,4S,5S,6R)-3,4,5-trihydroxy-6-(hydroxymethyl)tetrahydro-2H-pyran-2-yl)glutaramide]
88.4	230		NS(=O)(=O)c1ccc(-n2cc(-c3ccc(NC(=O)CCCC(=O)N[C@@H]4O[C@H](CO)[C@@H](O)[C@H](O)[C@H]4O)c(F)c3)nn2)cc1 [Compound 16j, N^1-(2-fluoro-4-(1-(4-sulfamoylphenyl)-1H-1,2,3-triazol-4-yl)phenyl)-N^5-((2R,3R,4S,5S,6R)-3,4,5-trihydroxy-6-(hydroxymethyl)tetrahydro-2H-pyran-2-yl)glutaramide]
91	290		NS(=O)(=O)c1ccc(-n2cc(-c3ccc(NC(=O)CCCC(=O)N[C@@H]4O[C@H](CO)[C@@H](O)[C@H](O)[C@H]4O)c(Cl)c3)nn2)cc1 [Compound 16k, N^1-(2-chloro-4-(1-(4-sulfamoylphenyl)-1H-1,2,3-triazol-4-yl)phenyl)-N^5-((2R,3R,4S,5S,6R)-3,4,5-trihydroxy-6-(hydroxymethyl)tetrahydro-2H-pyran-2-yl)glutaramide]
25.6	161		Cc1cc(-c2cn(-c3ccc(S(N)(=O)=O)cc3)nn2)ccc1NC(=O)CCCC(=O)N[C@@H]1O[C@H](CO)[C@@H](O)[C@H](O)[C@H]1O [Compound 16l, N^1-(2-methyl-4-(1-(4-sulfamoylphenyl)-1H-1,2,3-triazol-4-yl)phenyl)-N^5-((2R,3R,4S,5S,6R)-3,4,5-trihydroxy-6-(hydroxymethyl)tetrahydro-2H-pyran-2-yl)glutaramide]
177	352		NS(=O)(=O)c1ccc(-n2cc(-c3cc(F)c(NC(=O)CCCC(=O)N[C@@H]4O[C@H](CO)[C@@H](O)[C@H](O)[C@H]4O)c(F)c3)nn2)cc1 [Compound 16n, N^1-(2,6-difluoro-4-(1-(4-sulfamoylphenyl)-1H-1,2,3-triazol-4-yl)phenyl)-N^5-((2R,3R,4S,5S,6R)-3,4,5-trihydroxy-6-(hydroxymethyl)tetrahydro-2H-pyran-2-yl)glutaramide]
129	216		NS(=O)(=O)c1ccc(-n2cc(-c3ccc(NC(=O)CCCC(=O)N[C@@H]4O[C@H](CO)[C@@H](O)[C@H](O)[C@H]4O)c([N+](=O)[O-])c3)nn2)cc1 [Compound 16o, N^1-(2-nitro-4-(1-(4-sulfamoylphenyl)-1H-1,2,3-triazol-4-yl)phenyl)-N^5-((2R,3R,4S,5S,6R)-3,4,5-trihydroxy-6-(hydroxymethyl)tetrahydro-2H-pyran-2-yl)glutaramide]
